# Measured values: patent US20210121460A1, “A TRIPLE PHARMACEUTICAL COMBINATION COMPRISING DABRAFENIB, TRAMETINIB AND AN ERK INHIBITOR” (NOVARTIS AG, priority 2018, published 2021)
# Test system: BRAF V600E CRC xenograft model HT29
# Assay: In vivo antitumor efficacy, HT29 BRAF V600E CRC xenograft model (Example 4, 14 day)
# Details: HT29 in female nude mice; compound A 75 mg/kg, dabrafenib 30 mg/kg, trametinib 0.3 mg/kg QD PO, cetuximab 20 mg/kg 2QW IP
# Protocol: HT29 xenografts was established by direct subcutaneous (sc) implantation of 2×10^6 cells into the right axillary region of 6-7 week old female nude mice.
# Animals were weighed at dosing day(s) and dose was body weight adjusted, dosing volume was 10 ml/kg. Tumor dimensions and body weights were collected at the time of randomization and twice weekly thereafter for the study duration.
# Percent treatment/control (T/C) values were calculated using the following formulae:
# % Regression=100×ΔT/T0 if ΔT<0;
# where: T=mean tumor volume of the drug-treated group on the final day of the study; ΔT=mean tumor volume of the drug-treated group on the final day of the study—mean tumor volume of the drug-treated group on initial day of dosing; T0=mean tumor volume of the drug-treated group on the day of cohort; C=mean tumor volume of the control group on the final day of the study; and ΔC=mean tumor volume of the control group on the final day of the study—mean tumor volume of the control group on initial day of dosing.
# All data were expressed as mean±standard error of the mean (SEM). Delta tumor volume and percent body weight changes were used for statistical analysis. Between group comparisons were carried out using the One way ANOVA followed by a post hoc Tukey test. For all statistical evaluations, the level of significance was set at p<0.05. Significance compared to the untreated control group is reported unless otherwise stated.
row,SMILES,T/C % or Reg % at day 39 post implantation [%]
1,"CC(=O)Nc1cccc(-n2c(=O)n(C3CC3)c(=O)c3c(Nc4ccc(I)cc4F)n(C)c(=O)c(C)c32)c1 [trametinib, N-(3-(3-cyclopropyl-5-((2-fluoro-4-iodophenyl)amino)-6,8-dimethyl-2,4,7-trioxo-3,4,6,7-tetrahydropyrido[4,3-d]pyrimidin-1(2H)-yl)phenyl)acetamide]",47.7
2,"CC(C)(C)c1nc(-c2cccc(NS(=O)(=O)c3c(F)cccc3F)c2F)c(-c2ccnc(N)n2)s1 [dabrafenib, N-(3-(5-(2-aminopyrimidin-4-yl)-2-(tert-butyl)thiazol-4-yl)-2-fluorophenyl)-2,6-difluorobenzenesulfonamide]",58.8
3,"CNC[C@@H](NC(=O)c1ccc(-c2nc([C@H]3CC[C@H](O)[C@@H](F)C3)cnc2N)cc1F)c1cc(F)cc(Br)c1 [compound A, 4-(3-amino-6-((1S,3S,4S)-3-fluoro-4-hydroxycyclohexyl)pyrazin-2-yl)-N—((S)-1-(3-bromo-5-fluorophenyl)-2-(methylamino)ethyl)-2-fluorobenzamide]",53.8
